# Laboratory results reported in patent publication US10899754B2, “Modulators of indoleamine 2,3-dioxygenase” (GLAXOSMITHKLINE INTELLECTUAL PROPERTY DEVELOPMENT LIMITED, priority 2016, dated 2021).
# How the values were obtained:
# [1] = tested on: human epithelial HeLa cells; experiment: HeLa cytotoxicity assay (CellTiter-Glo); assay type: cell-based; details: pCC50
# Procedure: (§1) Compounds of the present invention were tested via high-throughput cellular assays utilizing detection of kynurenine via mass spectrometry and cytotoxicity as end-points. For the mass spectrometry and cytotoxicity assays, human epithelial HeLa cells (CCL-2; ATCC®, Manassas, Va.) were stimulated with human interferon-γ (IFN-γ) (Sigma-Aldrich Corporation, St. Louis, Mo.) to induce the expression of indoleamine 2, 3-dioxygenase (IDO1). Compounds with IDO1 inhibitory properties decreased the amount of kynurenine produced by the cells via the tryptophan catabolic pathway. Cellular toxicity due to the effect of compound treatment was measured using CellTiter-Glo® reagent (CTG) (Promega Corporation, Madison, Wis.), which is based on luminescent detection of ATP, an indicator of metabolically active cells.
# (§2) In preparation for the assays, test compounds were serially diluted 3-fold in DMSO from a typical top concentration of 1 mM or 5 mM and plated at 0.5 μL in 384-well, polystyrene, clear bottom, tissue culture treated plates with lids (Greiner Bio-One, Kremsmünster, Austria) to generate 11-point dose response curves. Low control wells (0% kynurenine or 100% cytotoxicity) contained either 0.5 μL of DMSO in the presence of unstimulated (−IFN-γ) HeLa cells for the mass spectrometry assay or 0.5 μL of DMSO in the absence of cells for the cytotoxicity assay, and high control wells (100% kynurenine or 0% cytotoxicity) contained 0.5 μL of DMSO in the presence of stimulated (+IFN-γ) HeLa cells for both the mass spectrometry and cytotoxicity assays.
# (§3) Frozen stocks of HeLa cells were washed and recovered in DMEM high glucose medium with HEPES (Thermo Fisher Scientific, Inc., Waltham, Mass.) supplemented with 10% v/v certified fetal bovine serum (FBS) (Thermo Fisher Scientific, Inc., Waltham, Mass.), and 1× penicillin-streptomycin antibiotic solution (Thermo Fisher Scientific, Inc., Waltham, Mass.). The cells were diluted to 100,000 cells/mL in the supplemented DMEM medium. 50 μL of either the cell suspension, for the mass spectrometry assay, or medium alone, for the cytotoxicity assay, were added to the low control wells, on the previously prepared 384-well compound plates, resulting in 5,000 cells/well or 0 cells/well respectively. IFN-γ was added to the remaining cell suspension at a final concentration of 10 nM, and 50 μL of the stimulated cells were added to all remaining wells on the 384-well compound plates. The plates, with lids, were then placed in a 37° C., 5% CO2 humidified incubator for 2 days.
# (§4) Following incubation, the 384-well plates were removed from the incubator and allowed to equilibrate to room temperature for 30 minutes. For the cytotoxicity assay, CellTiter-Glo® was prepared according to the manufacturer's instructions, and 10 μL were added to each plate well. After a twenty minute incubation at room temperature, luminescence was read on an EnVision® Multilabel Reader (PerkinElmer Inc., Waltham, Mass.). For the mass spectrometry assay, 10 μL of supernatant from each well of the compound-treated plates were added to 40 μL of acetonitrile, containing 10 μM of an internal standard for normalization, in 384-well, polypropylene, V-bottom plates (Greiner Bio-One, Kremsmünster, Austria) to extract the organic analytes. Following centrifugation at 2000 rpm for 10 minutes, 10 μL from each well of the acetonitrile extraction plates were added to 90 μL of sterile, distilled H2O in 384-well, polypropylene, V-bottom plates for analysis of kynurenine and the internal standard on the RapidFire 300 (Agilent Technologies, Santa Clara, Calif.) and 4000 QTRAP MS (SCIEX, Framingham, Mass.). MS data were integrated using Agilent Technologies' RapidFire Integrator software, and data were normalized for analysis as a ratio of kynurenine to the internal standard. […]
# [2] = target: indoleamine 2, 3-dioxygenase (IDO1) (Homo sapiens, UniProt P14902); experiment: IDO1 HeLa RapidFire MS assay (kynurenine detection by mass spectrometry); assay type: cell-based; parameters: to induce the expression of indoleamine 2, 3-dioxygenase (IDO1); details: HeLa cells, pIC50, read-out: IDO1_HELA_PXC50 (converted)
# Procedure: IDO1 HeLa RapidFire MS Assay
# as §1, §2, §3, §4
# Chain of indoleamine 2, 3-dioxygenase (IDO1) (P14902 whole entry): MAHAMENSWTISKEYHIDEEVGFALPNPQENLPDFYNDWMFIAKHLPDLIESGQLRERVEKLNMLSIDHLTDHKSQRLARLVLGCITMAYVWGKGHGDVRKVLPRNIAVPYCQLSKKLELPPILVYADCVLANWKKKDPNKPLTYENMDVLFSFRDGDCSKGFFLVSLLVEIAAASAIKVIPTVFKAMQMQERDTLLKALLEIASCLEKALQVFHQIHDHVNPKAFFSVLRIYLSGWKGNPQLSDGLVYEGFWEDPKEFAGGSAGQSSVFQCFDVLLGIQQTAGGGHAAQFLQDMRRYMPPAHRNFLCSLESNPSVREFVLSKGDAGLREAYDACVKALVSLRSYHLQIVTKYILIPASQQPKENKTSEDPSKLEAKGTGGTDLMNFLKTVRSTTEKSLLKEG
Structure (SMILES),HELA_IDO1_TOX_PXC50 [1],IC50 [2]
"COc1nsc(Nc2cc(C(C)CC(=O)O)ccc2N(CC(C)C)CC(C)C)n1 (stereo not shown) [example 132, 3-{4-[bis(2-methylpropyl)amino]-3-[(3-methoxy-1,2,4-thiadiazol-5-yl)amino]phenyl}butanoic acid]",<4.3,15800 nM
"CC(C)CN(c1ccc(-c2cn(C)nc2C(=O)O)cc1Nc1nc2ccccc2o1)C1CCCCC1 [example 176, 4-{3-[(1,3-benzoxazol-2-yl)amino]-4-[cyclohexyl(2-methylpropyl)amino]phenyl}-1-methyl-1H-pyrazole-3-carboxylic acid]",<5,3160 nM
"COCc1nnc(Nc2cc([C@H](C)CC(=O)O)ccc2N(CC(C)C)CC(C)C)[nH]1 [example 190, (3R)-3-{4-[bis(2-methylpropyl)amino]-3-{[5-(methoxymethyl)-4H-1,2,4-triazol-3-yl]amino}phenyl}butanoic acid]",<5,79.4 nM
"CC(C)CN(c1ccc(C(C)CC(=O)O)cc1NC1COC1)C1CCCCC1 (stereo not shown) [example 129, 3-{4-[cyclohexyl(2-methylpropyl)amino]-3-[(oxetan-3-yl)amino]phenyl}butanoic acid]",<4.3,1580 nM
"CC(C)CN(c1ccc(-c2ccccc2C(=O)O)cc1NCCC#N)C1CCCCC1 [example 277, 3′-[(2-cyanoethyl)amino]-4′-[cyclohexyl(2-methylpropyl)amino]-[1,1′-biphenyl]-2-carboxylic acid]",<5,316 nM
"CC(C)CN(c1ccc(C(C)OCC(=O)O)cc1Nc1ccc(C(N)=O)cn1)C1CCCCC1 (stereo not shown) [example 201, 2-(1-{3-[(5-carbamoylpyridin-2-yl)amino]-4-[cyclohexyl(2-methylpropyl)amino]phenyl}ethoxy)acetic acid]",<5,> 10000 nM
"CC(=O)Nc1ccc(Nc2cc(C(C)CC(=O)O)ccc2N(CC(C)C)CC(C)C)nc1 (stereo not shown) [example 199, 3-{4-[bis(2-methylpropyl)amino]-3-[(5-acetamidopyridin-2-yl)amino]phenyl}butanoic acid]",<5,6310 nM
"CC(C)CN(c1ccc(-c2ccccc2C(=O)O)cc1Nc1nc(C(=O)O)ns1)C1CCCCC1 [example 275, 5-({2′-carboxy-4-[cyclohexyl(2-methylpropyl)amino]-[1,1′-biphenyl]-3-yl}amino)-1,2,4-thiadiazole-3-carboxylic acid]",<5,6310 nM
"CC(C)CN(c1ccc(C(C)CC(=O)O)cc1NC1CCS(=O)(=O)CC1)C1CCCCC1 (stereo not shown) [example 134, 3-{4-[cyclohexyl(2-methylpropyl)amino]-3-[(1,1-dioxo-1λ^6-thian-4-yl)amino]phenyl}butanoic acid]",<5,3160 nM
"CC(C)CN(CC(C)C)c1ccc(C(C)CC(=O)O)cc1Nc1c(Nc2ccccc2)c(=O)c1=O (stereo not shown) [example 124, 3-{4-[bis(2-methylpropyl)amino]-3-{(3,4-dioxo-2-(phenylamino)cyclobut-1-en-1-yl]amino}phenyl}butanoic acid]",<4.3,12600 nM
"CC(C)CN(c1ccc(C(C)CC(=O)O)cc1NC1=N[C@@H](c2ccccc2)CS1)C1CCCCC1 (stereo partly drawn) [example 149, 3-{4-[cyclohexyl(2-methylpropyl)amino]-3-{[(4S)-4-phenyl-4,5-dihydro-1,3-thiazol-2-yl]amino}phenyl}butanoic acid]",<5,794 nM
"Cc1nnc(Nc2cc([C@H](C)CC(=O)O)ccc2N(CC(C)C)CC(C)C)s1 [example 186, (3R)-3-{4-[bis(2-methylpropyl)amino]-3-[(5-methyl-1,3,4-thiadiazol-2-yl)amino]phenyl}butanoic acid]",<5,79.4 nM
"CC(C)CN(c1ccc(-c2ccccc2C(=O)O)cc1Nc1nc(C(F)(F)F)ns1)C1CCN(C)CC1 [example 274, 4′-[(1-methylpiperidin-4-yl)(2-methylpropyl)amino]-3′-{[3-(trifluoromethyl)-1,2,4-thiadiazol-5-yl]amino}-[1,1′-biphenyl]-2-carboxylic acid]",<5,1000 nM
"CC(C)CN(c1ccc([C@H](C)CC(=O)O)cc1NC1CCC[C@@H](C)C1)C1CCCCC1 (stereo partly drawn) [example 184, (3R)-3-{4-[cyclohexyl(2-methylpropyl)amino]-3-{[(3R)-3-methylcyclohexyl]amino}phenyl}butanoic acid]",<5,501 nM
"CC(C)CN(CC(C)C)c1ccc(-c2ccccc2C(=O)O)cc1Nc1nc2ccccc2o1 [example 293, 3′-[(1,3-benzoxazol-2-yl)amino]-4′-[bis(2-methylpropyl)amino]-[1,1′-biphenyl]-2-carboxylic acid]",<5,631 nM
"CC(C)CN(c1ccc(-c2ccccc2C(=O)O)cc1Nc1nc2ccccc2[nH]1)C1CCOCC1 [example 296, 3′-[(1H-1,3-benzodiazol-2-yl)amino]-4′-[(2-methylpropyl)(oxan-4-yl)amino]-[1,1′-biphenyl]-2-carboxylic acid]",<5,631 nM
"CC(C)CN(CC(C)C)c1ccc([C@@H]2C[C@@H]2C(=O)O)cc1Nc1nc(C(F)(F)F)ns1 (single isomer, unassigned) [example 206]",<5,31.6 nM
"CC(=O)N1CCC(Nc2cc(C(C)CC(=O)O)ccc2N(CC(C)C)C2CCCCC2)C1 (stereo not shown) [example 135, 3-{3-[(1-acetylpyrrolidin-3-yl)amino]-4-[cyclohexyl(2-methylpropyl)amino]phenyl}butanoic acid]",<5,3980 nM
"CC(C)CN(c1ccc([C@H](C)CC(=O)O)cc1NC(C)CCO)C1CCCCC1 (stereo partly drawn) [example 185, (3R)-3-{4-[cyclohexyl(2-methylpropyl)amino]-3-[(4-hydroxybutan-2-yl)amino]phenyl}butanoic acid]",<5,1580 nM
"CC(C)CN(c1ccc(-c2ccccc2C(=O)O)cc1Nc1nc(C(F)(F)F)ns1)C1CCNCC1 [example 272, 4′-[(2-methylpropyl)(piperidin-4-yl)amino]-3′-{[3-(trifluoromethyl)-1,2,4-thiadiazol-5-yl]amino}-[1,1′-biphenyl]-2-carboxylic acid]",<5,5010 nM
"CC(C)CN(c1ccc(C(C)CC(=O)O)cc1NC1CCN(C)C1)C1CCCCC1 (stereo not shown) [example 144, 3-{4-[cyclohexyl(2-methylpropyl)amino]-3-[(1-methylpyrrolidin-3-yl)amino]phenyl}butanoic acid]",<5,3160 nM
"CC(=O)Nc1nnc(Nc2cc(C(C)CC(=O)O)ccc2N(CC(C)C)CC(C)C)s1 (stereo not shown) [example 187, 3-{4-[bis(2-methylpropyl)amino]-3-[(5-acetamido-1,3,4-thiadiazol-2-yl)amino]phenyl}butanoic acid]",<5,> 10000 nM
"CC(C)CN(c1ccc(C(C)CC(=O)O)cc1Nc1nc(Cl)ns1)C1COC1 (stereo not shown) [example 205, 3-{3-[(3-chloro-1,2,4-thiadiazol-5-yl)amino]-4-[{2-methylpropyl)(oxetan-3-yl)amino]phenyl}butanoic acid]",<5,> 10000 nM
